Among the data in patent publication US5935954A, “Compounds with improved multi-drug resistance activity” (Vertex Pharmaceuticals Incorporated, priority 1997, dated 1999) are Ki values, retold here.

Bounds are passed on as bounds.

The target in the test is FKBP12 (Homo sapiens, UniProt P62942). Put plainly: FKBP12 binding assay (inhibition of rotomase activity). The class given is biochemical. The note with it: apparent Ki. An excerpt: Preferably, the assay measures inhibition of FKBP12 rotomase activity. Such an assay has also been described by M. W. Harding et al., supra and by J. J. Siekierka et al., supra. In this assay the isomerization of an artificial substrate--N-succinyl-Ala-Ala-Pro-Phe-p-nitroanilide--is followed spectrophotometrically. The assay includes the cis form of the substrate, FKBP12, the inhibitor and chymotrypsin. Chymotrypsin is able to cleave p-nitroanilide from the trans form of the substrate, but not the cis form. Release of p-nitroanilide is measured.
FKBP12, sequence (P62942 whole entry, species assumed): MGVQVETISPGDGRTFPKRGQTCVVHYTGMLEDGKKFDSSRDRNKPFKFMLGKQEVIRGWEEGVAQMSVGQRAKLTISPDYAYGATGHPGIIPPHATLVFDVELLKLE
The inhibition of FKBP rotomase activity by the preferred FKBP12 binding compounds present in the compositions of this invention was assayed. In this assay various quantities of FKBP12 binding compound (0nM-10 μM) were added to cis-N-succinyl-Ala-Ala-Pro-Phe-p-nitroanilide in the presence of FKBP12 and chymotrypsin. FKBP12 converts the cis form of the substrate to the trans form. This allows chymotrypsin to cleave p-nitroanilide from the substrate. Release of p-nitroanilide was measured spectrophotometrically. This assay allowed me to measure the change in the first order rate constant of the rotomase activity as a function of FKBP12 binding compound concentration and yielded an estimate of apparent Ki.
Consider `CCOCc1cccc(COCC)c1-c1csc([C@@H](CCN2CCOCC2)OC(=O)[C@@H]2CCCCN2C(=O)C(=O)C(C)(C)C)c1` [Compound 63], for which the Ki was more than 5000 nM.
Take `CCOCc1cccc(COCC)c1-c1csc([C@H](CCN2CCOCC2)OC(=O)[C@@H]2CCCCN2C(=O)C(=O)C(C)(C)C)c1` [Compound 64]: the Ki amounted to 340 nM.
As to `CCOCc1cc2ccccc2n1-c1cccc([C@H](OC(=O)[C@@H]2CCCCN2C(=O)C(=O)C2(O)CCOCC2)/C(C)=C/[C@H]2CC[C@H](O)CC2)c1` [Compound 65], the Ki was determined as 490 nM.
For `C=CCC/C=C(\c1ccc([C@@H](CCN2CCOCC2)OC(=O)[C@@H]2CCCCN2C(=O)C(=O)CC(C)C)s1)C1CCOCC1` [Compound 66], the Ki amounted to 55 nM.
As for `CCOCc1cccc(COCC)c1-c1cncc(C(OC(=O)[C@@H]2CCCCN2C(=O)C(=O)C(C)(C)C)/C(C)=C/c2ccncc2)c1` (stereo partly shown) [Compound 67], the Ki came to 270 nM.
The same measure for `CCOCc1cccc(COCC)c1-c1cncc(C(OC(=O)[C@@H]2CCCCN2C(=O)C(=O)C2CCOCC2)/C(C)=C/c2ccncc2)c1` (stereo partly shown) [Compound 68]: more than 5000 nM; for `C=CCC/C=C(\c1ccc([C@H](CCN2CCOCC2)OC(=O)[C@@H]2CCCCN2C(=O)C(=O)CC(C)C)s1)C1CCOCC1` [Compound 69]: 745 nM; for `C=CCC/C=C(\c1ccc([C@@H](CCN2CCOCC2)OC(=O)[C@@H]2CCCCN2C(=O)C(=O)C(C)(C)C)s1)C1CCOCC1` [Compound 70]: 45 nM.
`C=CCC/C=C(/c1cccnc1)c1ccc([C@@H](OC(=O)[C@@H]2CCCCN2C(=O)C(=O)CC(C)C)/C(C)=C/C2CCN(C)CC2)s1` [Compound 71]: the Ki worked out at 364 nM.
The same measure for `C=CCC/C=C(/c1cccnc1)c1ccc([C@H](OC(=O)[C@@H]2CCCCN2C(=O)C(=O)CC(C)C)/C(C)=C/C2CCN(C)CC2)s1` [Compound 72]: 225 nM; for `CCOCc1cccc(COCC)c1-c1cncc([C@@H](CCN2CCOCC2)OC(=O)[C@@H]2CCCCN2C(=O)C(=O)CC(C)C)c1` [Compound 73]: 718 nM; for `CCCC/C=C(\c1cncc([C@@H](OC(=O)[C@@H]2CCCCN2C(=O)C(=O)C(C)C)/C(C)=C/C2CCN(C)CC2)c1)C1CCCCC1` [Compound 74]: 500 nM.
The same measure for `CCCC/C=C(\c1cncc([C@H](OC(=O)[C@@H]2CCCCN2C(=O)C(=O)C(C)C)/C(C)=C/C2CCN(C)CC2)c1)C1CCCCC1` [Compound 75]: 188 nM.
`CCOCc1cccc(COCC)c1-c1cncc([C@H](CCN2CCOCC2)OC(=O)[C@@H]2CCCCN2C(=O)C(=O)CC(C)C)c1` [Compound 77]: the Ki came out at 2100 nM.
The same measure for `CCOCc1cccc(COCC)c1-c1cncc([C@@H](CCN2CCOCC2)OC(=O)[C@@H]2CCCCN2C(=O)C(=O)C2(C)CCCCC2)c1` [Compound 78]: 77 nM; for `CCOCc1cccc(COCC)c1-c1cncc([C@H](CCN2CCOCC2)OC(=O)[C@@H]2CCCCN2C(=O)C(=O)C2(C)CCCCC2)c1` [Compound 80]: 230 nM; for `CCOCc1cccc(COCC)c1-c1cncc([C@@H](CCN2CCOCC2)OC(=O)[C@@H]2CCCCN2C(=O)C(=O)C(C)(C)C)c1` [Compound 81]: 189 nM.
As to `CCOCc1cccc(COCC)c1-c1ccc([C@@H](CCN2CCOCC2)OC(=O)[C@@H]2CCCCN2C(=O)C(=O)CC(C)C)s1` [Compound 83], the Ki stood at 315 nM.
The same measure for `CCOCc1cccc(COCC)c1-c1ccc([C@H](CCN2CCOCC2)OC(=O)[C@@H]2CCCCN2C(=O)C(=O)CC(C)C)s1` [Compound 84]: 2000 nM.
The same measure for `C=CCC/C=C(/c1cccnc1)c1ccc([C@@H](CCN2CCOCC2)OC(=O)[C@@H]2CCCCN2C(=O)C(=O)C2(C)CCCCC2)s1` [Compound 85]: 1 nM; for `CCOCc1cc2ccccc2n1-c1cccc([C@@H](CCN2CCOCC2)OC(=O)[C@@H]2CCCCN2C(=O)C(=O)C2(C)CCCCC2)c1` [Compound 86]: 14 nM; for `C=CCC/C=C(\c1ccc([C@H](CCN2CCOCC2)OC(=O)[C@@H]2CCCCN2C(=O)C(=O)C2(C)CCCCC2)s1)C1CCOCC1` [Compound 87]: 2.3 nM.
The same measure for `CCOc1ccc(OCC)c(-c2cncc([C@H](CCCc3ccccc3)OC(=O)[C@@H]3CCCCN3C(=O)C(=O)c3cc(OC)c(OC)c(OC)c3)c2)c1` [Compound 88]: 64 nM; for `CCC/C=C(/c1cccnc1)c1cccc(C(CCN2CCOCC2)OC(=O)[C@@H]2CCCCN2C(=O)C(=O)C(C)(C)C(C)C)c1` (stereo partly shown) [Compound 92]: 32 nM.
Turning to `CCOCc1cccc(COCC)c1-c1ccc([C@@H](CCN2CCOCC2)OC(=O)[C@@H]2CCCCN2C(=O)C(=O)C(C)(C)C(C)C)s1` [Compound 93], the Ki is 44 nM.
Regarding `CCOCc1cc2ccccc2n1-c1cccc([C@@H](CCN2CCOCC2)OC(=O)[C@@H]2CCCCN2C(=O)C(=O)C(C)(C)C(C)C)c1` [Compound 94], the Ki turned out to be 16 nM.
As for `C=CCC/C=C(\c1ccc([C@@H](CCN2CCOCC2)OC(=O)[C@@H]2CCCCN2C(=O)C(=O)C2(O)CCCCC2)s1)C1CCOCC1` [Compound 95], the figure is 14 nM; as for `C=CCC/C=C(/c1cccnc1)c1ccc([C@@H](CCN2CCOCC2)OC(=O)[C@@H]2CCCCN2C(=O)C(=O)C2(C)CCCCC2)s1` [Compound 96], 28 nM.
As for `CCC/C=C(\c1cncc([C@H](OC(=O)[C@@H]2CCCCN2C(=O)C(=O)C(C)(C)C(C)C)/C(C)=C/c2ccncc2)c1)C1CCCCC1` [Compound 98], the figure is 62 nM; as for `C=CCC/C=C(/c1cccnc1)c1ccc([C@H](CCN2CCOCC2)OC(=O)[C@@H]2CCCCN2C(=O)C(=O)c2cc(COC)ccc2C)s1` [Compound 101], 500 nM.
The same measure for `CCOCc1cccc(COCC)c1-c1ccc([C@@H](CCN2CCOCC2)OC(=O)[C@@H]2CCCCN2C(=O)C(=O)c2cc(COC)ccc2C)s1` [Compound 102]: 700 nM; for `CCCc1ccc(CCC)n1-c1cccc([C@@H](CCN2CCOCC2)OC(=O)[C@@H]2CCCCN2C(=O)C(=O)C(C)(C)C(C)C)c1` [Compound 103]: 21 nM; for `CCCc1ccc(CCC)n1-c1cccc([C@H](CCN2CCOCC2)OC(=O)[C@@H]2CCCCN2C(=O)C(=O)C(C)(C)C(C)C)c1` [Compound 104]: 870 nM.
With `CCCc1ccc(CCC)n1-c1cccc([C@H](OC(=O)[C@@H]2CCCCN2C(=O)C(=O)C(C)(C)C(C)C)/C(C)=C/c2ccncc2)c1` [Compound 106], the Ki was determined as 2100 nM.
As for `CCCc1ccc(CCC)n1-c1cccc(C(OC(=O)[C@@H]2CCCCN2C(=O)C(=O)[C@@H]2CCCC[C@H]2C)/C(C)=C/c2ccncc2)c1` (stereo partly shown) [Compound 108], the figure is 5100 nM.
As for `CCCc1ccc(CCC)n1-c1cccc(C(OC(=O)[C@@H]2CCCCN2C(=O)C(=O)C(C)(C)C(C)C)/C(C)=C/c2ccncc2)c1` (stereo partly shown) [Compound 109], the figure is more than 10000 nM; as for `CCC/C(=C/COC)c1cncc([C@H](CCN2CCOCC2)OC(=O)[C@@H]2CCCCN2C(=O)C(=O)C(C)(C)C(C)C)c1` [Compound 114], 172 nM.
Regarding `COC/C=C(\c1cncc([C@@H](CCN2CCOCC2)OC(=O)[C@@H]2CCCCN2C(=O)C(=O)C(C)(C)C(C)C)c1)C(C)C` [Compound 115], the Ki is 44 nM.
The same measure for `COC/C=C(\c1cncc([C@H](CCN2CCOCC2)OC(=O)[C@@H]2CCCCN2C(=O)C(=O)C(C)(C)C(C)C)c1)C(C)C` [Compound 116]: 130 nM; for `CCC/C(=C/COC)c1cncc([C@@H](CCN2CCOCC2)OC(=O)[C@@H]2CCCCN2C(=O)C(=O)[C@@H]2CCCC[C@H]2C)c1` [Compound 117]: 150 nM.
On to `COC/C=C(\c1cncc([C@@H](CCN2CCOCC2)OC(=O)[C@@H]2CCCCN2C(=O)C(=O)[C@@H]2CCCC[C@H]2C)c1)C(C)C` [Compound 118], for which the Ki stood at 70 nM.
Regarding `CCCCc1ccc(C)n1-c1cccc([C@@H](CCN2CCOCC2)OC(=O)[C@@H]2CCCCN2C(=O)C(=O)[C@@H]2CCCC[C@H]2C)c1` [Compound 120], the Ki was determined as 80 nM.
For the molecule `CCCCc1ccc(C)n1-c1cccc([C@@H](CCN2CCOCC2)OC(=O)[C@@H]2CCCCN2C(=O)C(=O)[C@@H]2C[C@H](OCC)CC[C@H]2C)c1` [Compound 121], the Ki came out at 85 nM.
The same measure for `CCCCc1ccc(C)n1-c1cccc([C@@H](CCN2CCOCC2)OC(=O)[C@@H]2CCCCN2C(=O)C(=O)C(C)(C)C(C)C)c1` [Compound 122]: 32 nM; for `COC/C=C(\c1cncc([C@@H](CCN2CCOCC2)OC(=O)[C@@H]2CCCCN2C(=O)C(=O)[C@@H]2C[C@H](C(C)(C)OC)CC[C@H]2C)c1)C(C)C` [Compound 124]: 1000 nM.
As for `CCC/C(=C/COC)c1cncc(C(CCN2CCOCC2)OC(=O)[C@@H]2CCCCN2C(=O)C(=O)[C@@H]2C[C@H](OCC)CC[C@H]2C)c1` (stereo partly shown) [Compound 125], the figure is 1100 nM; as for `CCCCc1ccc(C)n1-c1cccc([C@@H](CCN2CCOCC2)OC(=O)[C@@H]2CCCCN2C(=O)C(=O)[C@@H]2C[C@H](C(C)C)CC[C@H]2C)c1` [Compound 126], 3000 nM; as for `CCO[C@@H]1CC[C@@H](C)[C@H](C(=O)C(=O)N2CCCC[C@H]2C(=O)O[C@H](CCN2CCOCC2)c2cccc(-n3c(C)ccc3C)c2)C1` [Compound 127], 19 nM.
The same measure for `CCC/C=C(\c1cncc([C@@H](CCN2CCOCC2)OC(=O)[C@@H]2CCCCN2C(=O)C(=O)[C@@H]2CCCC[C@H]2C)c1)C(C)C` [Compound 128]: 41 nM.
